In patent publication US5663346A, “Substituted azaindolylidene compounds and process for their preparation” (Pharmacia S.p.A., priority 1994, dated 1997):
pIC50: −log10 of the molar value.

Key:
[1] = biological target: p45 v-abl tyrosine kinase; experiment: p45 v-abl Kinase Assay ((Val5)-Angiotensin II phosphorylation); format: biochemical, Abelson murine leukemia virus; settings: in-vitro; (Val5)-Angiotensin II 2 mM, ATP 50 mM, 40 ng abl-kinase, pH 8.0; read-out: Inhibition of p-45 v-abl kinase, IC50
Protocol: p45 v-abl Kinase Purification
The enzyme used in our test was the p45 v-abl tyrosine kinase which represents the catalytic domain of the Abelson tyrosine kinase (isolated from the Abelson murine leukemia virus). The p45 v-abl kinase was produced and isolated as described by Wang et al. in J. Biol. chem 260, 64 (1985) and by Ferguson et al. in J. Biol. Chem 260, 3652 (1985) and in Biochem J. 257, 321 (1989).
(Val^5 )-Angiotensin II phosphorylation was performed by incubation with 40 ng of purified abl-kinase and (g-^32 p)-ATP, in […] of buffer containing Tris-HCl 25 mM, Ph 8.0, MgCl2 10 Mm and dithiothreitol 0.1 Mm (kinase buffer). The reaction mixture was incubated for the indicated time at […] and the reaction stopped by adding […] of 5% trichloroacetic acid. After a brief incubation on ice, tubes were centrifuged. The supernatants were spotted on phosphocellulose paper squares (Whatman P-81) and washed extensively in acetic acid. The radioactivity bound to dried phosphocellulose squares was measured in a liquid scintillation counter. IC50 values were. calculated from triplicated determinations of each experimental point. Each inhibitor was tested at concentrations ranging from […] in the presence of fixed concentrations of peptide (2 mM) and ATP (50 mM).

K562 cells = experiment: K562 cell Growth Inhibition Assay; format: cell-based; settings: Homo sapiens, 66 h incubation, [3H]-Thymidine incorporation, with or without 10% foetal calf serum
Protocol: In-vivo Assay K562 cell Growth Inhibition Assay 1 ml of K562 cells, grown in suspension, were incubated for 66 h with or without 10% foetal calf serum in the presence of 1 mCi of [^3 H]-Thymidine. Cells were harvested, washed three times in cold PBS and treated with 5% trichloroacetic acid for 5 min. on ice. […] The extract was counted in a liquid scintillation counter. The inhibitory activity data for a representative compound according to the present invention, obtained both in the in-vitro p45 v-abl kinase assay and in the in-vivo human chronic myeloid leukemia K562 cell growth inhibition assay described above, are set out in Table 1.

SMILES | pIC50 [1] | pIC50 (K562 cells)
N#Cc1ccc2c(c1)C(=Cc1c[nH]c3ncccc13)C(=O)N2 [5-cyano-3-[(7-azaindol-3-yl)methylen]-2-oxindole] | 6.01 | 5.60
Nc1ccc2c(c1)C(=Cc1c[nH]c3ncccc13)C(=O)N2 [5-amino-3-[(7-azaindol-3-yl)methylen]-2-oxindole ditrifluoroacetate] | 7.05 | 5.06
